O=[N+]([O-])c1ccc(Cl)c(Cl)c1
solubility (mole fraction)
Settings	in ethanol	in methanol
278.15 K	0.02	0.0208
280.65 K	0.0271	0.0251
283.15 K	0.0352	0.0296
285.65 K	0.0444	0.0353
288.15 K	0.0549	0.0422
290.65 K	0.0661	0.0505
293.15 K	0.0769	0.0611
295.65 K	0.0888	0.0724
298.15 K	0.0997	0.0873
300.65 K	0.111	0.105
303.15 K	0.119	0.125

Source: BigSolDB 2.1
